Eight molecules from patent publication US4672068A, “Antihypertensive 1,4-dihydropyridines having a conjugated ester” (Fujirebio Kabushiki Kaisha, priority 1984, dated 1987) can be followed below.

The nature of series [1]: in vivo. As to conditions: mouse, iv. The procedure: Acute toxicity of several derivatives was tested with male ddy mice weighed 15-30 grams by the up and down method. Each derivative was dissolved in 1.5% PVP/ethanol solution, and diluted with a saline solution. Such derivative solution was injected into the caudal vein, and the acute toxicity was determined.
Series [2] has as its system Male SHR, systolic blood pressure. Put plainly: Systolic blood pressure by tail cuff method, oral administration (3 mg/kg), Table 4. As to conditions: conscious SHR; for Duration: '24<' means greater than 24. Format: in vivo, rat. The procedure:
Systolic blood pressure was measured by the tail cuff method with electrophygmomanometer (PE-300, made by Narco Co.). Each derivative (3 mg/kg) was administered orally, suspended in 5% gum arabic solution.

In series [3] the test system is Male spontaneously hypertensive rats (SHR), arterial blood pressure. Kind of series: Depressor response after intraduodenal administration (1 mg/kg), Table 2. Format: in vivo, rat. The note with it: for Half-life: '120<' means greater than 120. The method, then:
Arterial blood pressure was measured through the catherized artery with a pressure transducer (MPU-0.5, manufactured by Nihon Kohden Kabushiki Kaisha). The catheter was inserted into the abdominal aorta via the median coccygcal artery of SHR under light ether anesthesia. The recordings were made on a rectigraph (manufactured by Sanei Sokki Kabushiki Kaisha). The 1,4-dihydropyridine derivatives prepared in the foregoing examples were administered with catheter which was inserted previously into the caudal vein or duodenum at least two hours after the operation. SHR were restrained with wire mesh cage immediately after the operation.

The test system is the same in series [4]. Put plainly: Depressor response after intravenous administration (30 μg/kg), Table 1. The format is in vivo, rat. As to conditions: for Duration: '90<' means greater than 90. The method in brief:
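Conscious restrained SHR with mean arterial pressure above 140 mmHg; pressure recorded via abdominal aortic catheter and transducer. Dosing was at least 2 h after surgery, through a caudal vein catheter. Compound was given in 1.5% PVP/ethanol diluted with 0.9% saline.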

Series [5] deals with rat (SHR), blood pressure and heart rate. Kind of series: Depressor response of trans- and cis-forms, dose-response intravenous, Tables 5 and 6. Format: in vivo. The note with it: for ED40: Rattus norvegicus, intravenous, from regression line. The method, then:
Male spontaneously hypertensive rats (SHR) which had mean arterial blood pressures higher than 140 mmHg were used for the experiments. Arterial blood pressure was measured through the catherized artery with a pressure transducer (MPU-0.5, manufactured by Nihon Kohden Kabushiki Kaisha). The catheter was inserted into the abdominal aorta via the median coccygcal artery of SHR under light ether anesthesia. The recordings were made on a rectigraph (manufactured by Sanei Sokki Kabushiki Kaisha). The 1,4-dihydropyridine derivatives prepared in the foregoing examples were administered with catheter which was inserted previously into the caudal vein or duodenum at least two hours after the operation. SHR were restrained with wire mesh cage immediately after the operation. […]

Where [6] appears, read: male ddy mice, caudal vein injection, '60<' means greater than 60.

Regarding `COC(=O)C1=C(C)NC(C)=C(C(=O)OCC#Cc2ccccc2)C1c1cccc([N+](=O)[O-])c1` (stereo not drawn) [Example 55, Methyl phenylpropargyl 4-(3-nitrophenyl)-2,6-dimethyl-1,4-dihydropyridine-3,5-dicarboxylate], in series [1] (setting [6]), the median lethal dose (LD50) is more than 60 mg/kg. In series [2], the “ΔBP After 1 hour” value is given as -65 mmHg, the “ΔBP After 3 hours” value is listed as -75 mmHg and the Duration is more than 24 h. For the same molecule, in series [3], the “The time to reach the lowest BP” value is 60 min, the “ΔBP (Maximum depressor response)” value came out at 45 mmHg and the Half-life was more than 240 min. Moreover, in series [4], the “The time to reach the lowest BP” value came to 2 min, the “ΔBP (Maximum depressor response)” value is 55 mmHg and the Duration was more than 90 min.
As to `COC(=O)C1=C(C)NC(C)=C(C(=O)OC/C=C/c2ccccc2)C1c1cccc([N+](=O)[O-])c1` (stereo not drawn) [Example 1, cinnamyl methyl 4-(3-nitrophenyl)-2,6-dimethyl-1,4-dihydropyridine-3,5-dicarboxylate (trans)], in series [2], the “ΔBP After 1 hour” value is listed as -75 mmHg, the “ΔBP After 3 hours” value was -80.5 mmHg and the Duration lay in the range of 7 to 24 h. In series [5] (10 μg/kg i.v.), the “Depressure Response MaxΔBP” value was found to be 35.0 mmHg, the “Depressure Response Peak” value is 2.0 min, the “MaxΔHR (Heart rates)” value was found to be 28.3 beats/min and the “T 1/2 (Halflife)” value came to 32.6 min. In addition, in series [5] (30 μg/kg i.v.), the “Depressure Response MaxΔBP” value worked out at 52.2 mmHg, the “Depressure Response Peak” value was 1.8 min, the “MaxΔHR (Heart rates)” value is 65.3 beats/min and the “T 1/2 (Halflife)” value is recorded as 26.7 min. In series [5] (100 μg/kg i.v.), the “Depressure Response MaxΔBP” value worked out at 69.0 mmHg, the “Depressure Response Peak” value stood at 2.0 min, the “MaxΔHR (Heart rates)” value is 32.5 beats/min and the “T 1/2 (Halflife)” value is 48.5 min. The same molecule yielded an ED40 in series [5] of 0.0156 mg/kg. Further, in series [3], the “The time to reach the lowest BP” value was determined as 43.7 min, the “ΔBP (Maximum depressor response)” value was 35.0 mmHg and the Half-life is more than 120 min. In series [4], the “The time to reach the lowest BP” value came out at 1.7 min, the “ΔBP (Maximum depressor response)” value was 44 mmHg and the Duration is more than 90 min.
The molecule `COC(=O)C1=C(C)NC(C)=C(C(=O)OCCC=Cc2ccc(SC)cc2)C1c1cccc([N+](=O)[O-])c1` (stereo not drawn) [Example 24, 4-(p-methylthiophenyl)-3-butenylmethyl 4-(3-nitrophenyl)-2,6-dimethyl-1,4-dihydropyridine-3,5-dicarboxylate] had an LD50 in series [1] (setting [6]) of 50 mg/kg. Moreover, in series [3], the “The time to reach the lowest BP” value was 160 min, the “ΔBP (Maximum depressor response)” value was found to be 27 mmHg and the Half-life was more than 160 min. Moreover, in series [4], the “The time to reach the lowest BP” value came out at 2.1 min, the “ΔBP (Maximum depressor response)” value turned out to be 60 mmHg and the Duration is given as 120 min.
Molecule `COC(=O)C1=C(C)NC(C)=C(C(=O)OCC/C=C\c2ccc3ccccc3c2)C1c1cccc([N+](=O)[O-])c1` (stereo not drawn) [Example 57, Methyl (Z)-4-(2-naphthyl)-3-butenyl 4-(3-nitrophenyl)-2,6-dimethyl-1,4-dihydropyridine-3,5-dicarboxylate (cis)] displayed a median lethal dose (LD50) in series [1] (setting [6]) of more than 75 mg/kg. In series [5] (10 μg/kg i.v.), the “Depressure Response MaxΔBP” value is recorded as 12.0 mmHg, the “Depressure Response Peak” value was 3.2 min, the “MaxΔHR (Heart rates)” value was determined as 23.3 beats/min and the “T 1/2 (Halflife)” value was found to be 14.0 min. Also, in series [5] (30 μg/kg i.v.), the “Depressure Response MaxΔBP” value was 26.8 mmHg, the “Depressure Response Peak” value turned out to be 2.6 min, the “MaxΔHR (Heart rates)” value turned out to be 62.5 beats/min and the “T 1/2 (Halflife)” value was 15.0 min. Besides, in series [5] (100 μg/kg i.v.), the “Depressure Response MaxΔBP” value was determined as 68.5 mmHg, the “Depressure Response Peak” value turned out to be 3.8 min, the “MaxΔHR (Heart rates)” value was 120 beats/min and the “T 1/2 (Halflife)” value was determined as 25.0 min. This molecule also gave an ED40 in series [5] of 0.0408 mg/kg. Moreover, in series [4], the “The time to reach the lowest BP” value was 2.6 min and the “ΔBP (Maximum depressor response)” value is given as 26.8 mmHg.
Take `COC(=O)C1=C(C)NC(C)=C(C(=O)OCC/C=C/c2ccc3ccccc3c2)C1c1cccc([N+](=O)[O-])c1` (stereo not drawn) [12 (trans), 4-β-naphthyl-3-butenyl methyl 4-(3-nitrophenyl)-2,6-dimethyl-1,4-dihydropyridine-3,5-dicarboxylate]: the LD50 in series [1] is more than 60 mg/kg. Further, in series [5] (10 μg/kg i.v.), the “Depressure Response MaxΔBP” value came to 21.7 mmHg, the “Depressure Response Peak” value turned out to be 2.8 min, the “MaxΔHR (Heart rates)” value is 43.3 beats/min and the “T 1/2 (Halflife)” value turned out to be 11.3 min. For the same molecule, in series [5] (30 μg/kg i.v.), the “Depressure Response MaxΔBP” value worked out at 54.8 mmHg, the “Depressure Response Peak” value was found to be 4.1 min, the “MaxΔHR (Heart rates)” value amounted to 90.0 beats/min and the “T 1/2 (Halflife)” value is listed as 16.0 min. Further, in series [5] (100 μg/kg i.v.), the “Depressure Response MaxΔBP” value was 72.5 mmHg, the “Depressure Response Peak” value is recorded as 4.3 min, the “MaxΔHR (Heart rates)” value was found to be 80.0 beats/min and the “T 1/2 (Halflife)” value is 37.5 min. Moreover, the ED40 in series [5] came out at 0.0199 mg/kg. Besides, in series [3], the “The time to reach the lowest BP” value stood at 50 min, the “ΔBP (Maximum depressor response)” value is listed as 25 mmHg and the Half-life turned out to be 100 min. In series [4], the “The time to reach the lowest BP” value came out at 3.0 min, the “ΔBP (Maximum depressor response)” value worked out at 50 mmHg and the Duration is reported as more than 90 min.
On to `COC(=O)C1=C(C)NC(C)=C(C(=O)OCC=Cc2ccco2)C1c1cccc([N+](=O)[O-])c1` (stereo not drawn) [Example 7, 3-(2furyl)-2-propenyl methyl 4-(3-nitrophenyl)-2,6-dimethyl-1,4-dihydropyridine-3,5-dicarboxylate], for which, in series [1] (setting [6]), the LD50 was more than 60 mg/kg. For the same molecule, in series [3], the “The time to reach the lowest BP” value was determined as 105 min, the “ΔBP (Maximum depressor response)” value is 20 mmHg and the Half-life was more than 120 min.
In series [1] (setting [6]), `COC(=O)C1=C(C)NC(C)=C(C(=O)OCCN(C)Cc2ccccc2)C1c1cccc([N+](=O)[O-])c1.Cl` (stereo not drawn) [B, 4-(m-nitrophenyl)-2,6-dimethyl-1,4-dihydropyridine-3,5-dicarboxylic acid-3-methyl ester-5-[2-(benzylmethylamino)-ethyl]ester hydrochloride, reference compound] had an LD50 of 9.7 mg/kg. For the same molecule, in series [2], the “ΔBP After 1 hour” value is on record as -27 mmHg, the “ΔBP After 3 hours” value was -4.5 mmHg and the Duration was less than 3 h. In series [3], the “The time to reach the lowest BP” value stood at 10.7 min, the “ΔBP (Maximum depressor response)” value is reported as 35 mmHg and the Half-life was found to be 46.7 min. In series [4], the “The time to reach the lowest BP” value is 0.6 min, the “ΔBP (Maximum depressor response)” value stood at 58.3 mmHg and the Duration was in the range of 45 to 90 min.
For `COC(=O)C1=C(C)NC(C)=C(C(=O)OCCC=Cc2ccc(C#N)cc2)C1c1cccc([N+](=O)[O-])c1` (stereo not drawn) [Example 17, 4-(4-cyanophenyl)-3-butenyl methyl 4-(3-nitrophenyl)-2,6-dimethyl-1,4-dihydropyridine-3,5-dicarboxylate], in series [1] (setting [6]), the LD50 is 45 mg/kg. Moreover, in series [3], the “The time to reach the lowest BP” value came out at 180 min, the “ΔBP (Maximum depressor response)” value turned out to be 25 mmHg and the Half-life was more than 200 min. Besides, in series [4], the “The time to reach the lowest BP” value turned out to be 1.0 min, the “ΔBP (Maximum depressor response)” value was 70 mmHg and the Duration is reported as more than 80 min.
